This is an account of results in patent US12013390B2, “EBIV nucleic acid composition and application thereof” (Wuhan Institute of Virology, Chinese Academy of Sciences, priority 2022, dated 2024).

pEC50: −log10 of the molar value.

For the first test, the system named is recombinant EBIV carrying green fluorescent protein. The experiment in a line: Antiviral drug screening with green fluorescent recombinant EBIV in BHK-21 cells, fluorescence per well by high content screening. The test is classed as cell-based, Ebinur Lake virus (EBIV). The note with it: Ebinur lake virus, BHK-21, 36 h, read-out: EC50 (half-maximal effect concentration). How it is done:
Further, the recombinant EBIV disclosed in the examples of the present application can also be used for the screening of antiviral drugs, for example for the screening of antiviral compounds. The specific steps were as follows.
(1) A 96-well plate for BHK-21 cells was prepared. The cells were planked at 10^4 cells/well. The plate was cultured in a cell incubator with a temperature of 37° C. and a CO2 concentration of 5%. The drug screening test was conducted when the cells grew to 40-50%. The drug to be tested was dissolved in dimethyl sulfoxide. Then the drug was diluted to 100 μM with DMEM medium containing 2% FBS. After that, the drug was subjected to serial 2-fold dilution to obtain the dilution gradient with the concentration of 100 μM, 50 μM, 25 μM, 12.5 μM, 6.25 μM, 3.125 μM, and 1.5625 μM, respectively (the concentration of DMSO in the diluted drug shall be <0.1%).
(2) The original culture medium was removed from the 96-well plate. The virus was inoculated into the 96-well plate at an MOI of 0.01 and a volume of 100 μL/well. At the same time, the diluted drugs to be tested were respectively added into the same 96-well plate at 100 μL/well and mixed well with the virus solution. The plate was incubated in a cell incubator with a temperature of 37° C. and a CO2 concentration of 5% for 36 hours before detection.
(3) The 96-well plate was photographed and data was analyzed using a high content screening (HCS) system to determine the amount of fluorescence per well and calculate the Z-factor for each compound:
[formula] where the four parameters σs, σc, μs, and μc represent the standard deviation and mean of the sample to be tested (s) and the negative (c) control, respectively. The stability and sensitivity of the screening system were then assessed using the Z′-factor:
[formula] where the four parameters σp, σn, μp, and μn represent the standard deviation and mean of the positive sample (p) and the negative (n) control, respectively.
(4) Cell viability per well (and the percentage of cells remaining per well) was observed under a microscope and the half-maximal effect concentration (EC50) of the drug was calculated using GraphPad Prism 9 software and an EC50 graph was plotted.
Turning to `NC(=O)c1ncn([C@@H]2O[C@H](CO)[C@@H](O)[C@H]2O)n1` [ribavirin, reference compound], the pEC50 was 4.66.

Staying with this test, now noted: even at 50 μM; BHK-21 cells, MOI 0.01, 36 hours.
As for `NC(=O)c1nc(F)c[nH]c1=O` [favipiravir, reference compound], the “inhibitory effect on the virus” value is reported as “no inhibitory effect”.

Staying with this test, now noted: high-content screening; compared with Z'-factor 0.46 of the system (25 μM ribavirin positive control).
For `C=C[C@H]1[C@H](O[C@@H]2O[C@H](CO)[C@@H](O)[C@H](O)[C@H]2O)OC=C(C(=O)OC)[C@H]1CC(=O)O` [Secoxyloganin], the Z-factor turned out to be 0.56. Same read-out and setting: for `CC(C)=CCc1cc2c(cc1O)oc(=O)c1c3ccc(O)cc3oc21` [Psoralidin] the value was 0.46.

On to Clinodiside Aogenin A, for which the Z-factor is 0.54. Same read-out and setting: in the case of `CC(C)=CCc1c(O)ccc(C(=O)/C=C/c2ccc(O)cc2)c1O` [Isobavachalcone] it was 0.58. Consider `Oc1cc(O)c2c(c1)O[C@H](c1cc(O)c(O)c(O)c1)[C@H](O)C2` [Epigallocatechol], for which the Z-factor was 0.51.

`C[C@H](CCC(=O)O)[C@H]1CC[C@H]2[C@@H]3[C@H](O)C[C@@H]4C[C@H](O)CC[C@]4(C)[C@H]3CC[C@]12C` [Chenodeoxycholic acid, reference compound]: the Z-factor is 0.59. On the same count and under the same terms, for `C[C@@]12C(=O)OC(=O)[C@]1(C)[C@H]1CC[C@@H]2O1` [Cantharidin] the value was 0.50; for `COc1ccc(-c2cc(=O)c3c(O)cc(O[C@@H]4O[C@H](CO[C@@H]5O[C@@H](C)[C@H](O)[C@@H](O)[C@H]5O)[C@@H](O)[C@H](O)[C@H]4O)cc3o2)cc1O` [Diosmin, reference compound], 0.58. Take `CC(C)=CCC(OC(=O)C=C(C)C)C1=CC(=O)c2c(O)ccc(O)c2C1=O` (stereo not drawn) [Beta, beta-dimethyl acryl shikonin]: the Z-factor is reported as 0.53.
